Experimental findings from patent publication US9409915B2, “Substituted aza-bicyclic imidazole derivatives useful as TRPM8 receptor modulators” (Janssen Pharmaceutica NV, priority 2010, dated 2016) are described below.

Where a name gives a salt, the structure may show the parent alone. Read-outs that look alike come from different tables or passages of the source.

As a reminder, the IC50 is the midpoint of a concentration-inhibition curve. Low values mean higher potency, high ones lower potency. What is called inhibition is the drop in the measured response relative to a control, in per cent.

For the assay, the target named is canine TRPM8 (Canis lupus familiaris, UniProt Q1A7N1). Nature of the assay: In vitro canine TRPM8 functional assay (Ca2+-sensitive fluorescent dye, icilin activation). The assay is classed as cell-based. How it is done: The functional activity of representative compounds of the formula (I) of the present invention was quantified by measuring changes in intracellular calcium concentration using a Ca^2+-sensitive fluorescent dye. The changes in fluorescent signal were monitored by a fluorescence plate reader, either a FLIPR™ (Molecular Devices) or FDSS (Hamamatsu).
HEK293 cells stably expressing canine TRPM8 were routinely grown as monolayers in Dulbecco's minimum essential medium supplemented with 10% FBS, 2 mM L-glutamine, 100 units/mL penicillin, 100 ug/mL streptomycin and 400 μg/mL G418. Cells were maintained in 5% CO2 at 37° C. At 24 hr prior to assay, cells were seeded in black wall, clear-base poly-D-lysine coated 384-well plates (BD Biosciences, NJ, USA) at a density of 5,000 cells per well in culture medium and grown overnight in 5% CO2 at 37° C. On assay day, growth media was removed, and cells were loaded with Calcium 3 Dye (Molecular Devices) for 35 min at 37° C., under 5% CO2 and then incubated for 25 min at room temperature and atmosphere. Subsequently, cells were tested for agonist-induced increases in intracellular Ca^2+ levels using FLIPR™ or FDSS. Cells were treated with compounds of the formula (I) at varying concentrations and intracellular Ca^2+ was measured for 5 min prior to the addition of icilin to each well to achieve a final concentration that produces an approximately 80% maximal response.
Maximal fluorescence intensity (FI) achieved upon addition of icilin was exported from the FLIPR™ or FDSS software and further analyzed using GraphPad Prism 3.02 (Graph Pad Software Inc., CA, U.S.A.). Basal FI was subtracted prior to normalizing data to percent of maximal response. Curves were generated using the average of quadruplicate wells for each data point using nonlinear regression of either sigmoidal dose response or sigmoidal dose response (variable slope). Finally, the EC50 and IC50 values were calculated with the best-fit curve determined by GraphPad Prism

The mark [1] stands for this setting: 0.2 μM compound, HEK293 cells stably expressing canine TRPM8, icilin-induced Ca2+ response.
Where [2] appears, read: HEK293 cells stably expressing canine TRPM8, icilin-induced Ca2+ response, eight-point concentration-response.
Where [3] appears, read: HEK293, 0.2 μM compound, HEK293 cells stably expressing canine TRPM8, icilin-induced Ca2+ response.

Chain of canine TRPM8 (Q1A7N1 1-1104): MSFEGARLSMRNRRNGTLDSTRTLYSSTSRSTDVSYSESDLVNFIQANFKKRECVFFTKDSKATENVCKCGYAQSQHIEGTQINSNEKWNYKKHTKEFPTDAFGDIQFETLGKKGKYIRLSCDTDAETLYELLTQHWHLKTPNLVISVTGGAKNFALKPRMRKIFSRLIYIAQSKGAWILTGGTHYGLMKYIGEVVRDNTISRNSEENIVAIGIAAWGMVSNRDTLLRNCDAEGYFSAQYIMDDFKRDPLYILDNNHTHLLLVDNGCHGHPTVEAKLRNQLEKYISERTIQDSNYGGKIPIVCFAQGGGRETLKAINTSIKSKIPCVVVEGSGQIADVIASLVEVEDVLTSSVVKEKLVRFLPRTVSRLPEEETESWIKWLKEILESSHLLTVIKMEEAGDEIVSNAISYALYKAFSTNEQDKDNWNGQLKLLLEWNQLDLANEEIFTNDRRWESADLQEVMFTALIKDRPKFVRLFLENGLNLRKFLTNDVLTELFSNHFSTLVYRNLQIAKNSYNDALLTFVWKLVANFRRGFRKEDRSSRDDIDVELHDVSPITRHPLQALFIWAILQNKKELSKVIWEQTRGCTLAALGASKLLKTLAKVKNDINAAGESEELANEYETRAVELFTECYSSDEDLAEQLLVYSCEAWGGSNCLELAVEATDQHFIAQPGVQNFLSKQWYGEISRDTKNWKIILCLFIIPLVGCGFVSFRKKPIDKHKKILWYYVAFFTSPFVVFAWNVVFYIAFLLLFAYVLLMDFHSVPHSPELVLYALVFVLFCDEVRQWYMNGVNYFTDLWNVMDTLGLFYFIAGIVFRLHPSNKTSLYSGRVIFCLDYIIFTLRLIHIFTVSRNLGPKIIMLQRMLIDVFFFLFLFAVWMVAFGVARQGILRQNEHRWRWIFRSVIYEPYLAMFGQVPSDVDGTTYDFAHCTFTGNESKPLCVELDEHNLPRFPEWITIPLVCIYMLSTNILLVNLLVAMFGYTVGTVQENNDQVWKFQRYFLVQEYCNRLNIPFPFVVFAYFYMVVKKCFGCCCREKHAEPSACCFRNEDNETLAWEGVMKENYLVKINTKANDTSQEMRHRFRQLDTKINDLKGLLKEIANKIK

For `Cn1nc(C(C)(C)C)c(Cl)c1-c1nc2nc(-c3ccccc3C(F)(F)F)cc(C(F)(F)F)c2[nH]1` [Compound 1], under setting [1], the “% Inh @ 0.2 μM” value worked out at 99%. The same molecule yielded an IC50 under setting [2] of 27 nM.

`COc1nc(-c2ccccc2OC(F)(F)F)cc2nc(-c3c(Cl)c(C(C)(C)C)nn3C)[nH]c12` [Compound 2, 2-(5-tert-Butyl-4-chloro-2-methyl-2H-pyrazol-3-yl)-4-methoxy-6-(2-trifluoromethoxy-phenyl)-3H-imidazo[4,5-c]pyridine sodium salt]: the inhibition at 0.2 µM under setting [1] is 100%. The molecule further registered an IC50 under setting [2] of 13 nM.

For the molecule `Cn1nc(C(C)(C)C)cc1-c1nc2nc(-c3ccccc3C(F)(F)F)cc(Cl)c2[nH]1` [Compound 6, 2-(5-tert-butyl-2-methyl-2H-pyrazol-3-yl)-7-chloro-5-(2-trifluoromethyl-phenyl)-1H-imidazo[4,5-b]pyridine sodium salt], under setting [1], the inhibition at 0.2 µM came to 65%. For the same molecule, half-maximal inhibition under setting [2] (IC50) was put at 69 nM.

`CC(C)(C)c1cc(-c2nc3nc(-c4ccccc4C(F)(F)F)cc(Cl)c3[nH]2)on1` [Compound 7, 2-(3-tert-Butyl-isoxazol-5-yl)-7-chloro-5-(2-trifluoromethyl-phenyl)-1H-imidazo[4,5-b]pyridine]: the inhibition at 0.2 µM under setting [1] worked out at 99%. In addition, the IC50 under setting [2] worked out at 38 nM.

Consider `COc1nc(-c2ccccc2C(F)(F)F)cc2nc(-c3c(Cl)c(C(C)(C)C)nn3C)[nH]c12` [Compound 9, 2-(5-tert-Butyl-4-chloro-2-methyl-2H-pyrazol-3-yl)-4-methoxy-6-(2-trifluoromethyl-phenyl)-3H-imidazo[4,5-c]pyridine methanesulfonic acid salt, hydrochloride], for which the inhibition at 0.2 µM under setting [1] came to 100%.

`CC(C)(C)c1cc(-c2nc3nc(-c4ccccc4C(F)(F)F)cc(C(F)(F)F)c3[nH]2)on1` [Compound 10, 2-(3-tert-Butyl-isoxazol-5-yl)-7-trifluoromethyl-5-(2-trifluoromethyl-phenyl)-1H-imidazo[4,5-b]pyridine]: under setting [1], the inhibition at 0.2 µM worked out at 101%. Moreover, under setting [2], the IC50 was found to be 16 nM.

As to `COc1nc(-c2ccccc2Cl)cc2nc(-c3cc(C(C)(C)C)nn3C)[nH]c12` [Compound 12, 2-(5-tert-Butyl-2-methyl-2H-pyrazol-3-yl)-6-(2-chloro-phenyl)-4-methoxy-3H-imidazo[4,5-c]pyridine], the inhibition at 0.2 µM under setting [1] was found to be 101%. The IC50 under setting [2] was found to be 11 nM.

For `COc1nc(-c2ccccc2C(F)(F)F)cc2[nH]c(-c3onc(C(C)(C)C)c3C#N)nc12` [Compound 13, 3-tert-Butyl-5-[4-methoxy-6-(2-trifluoromethyl-phenyl)-1H-imidazo[4,5-c]pyridine-2-yl]-isoxazole-4-carbonitrile methanesulfonic acid salt], under setting [1], the inhibition at 0.2 µM came to 94%. The molecule also yielded an IC50 under setting [2] of 46 nM.

`CC(C)Oc1nc(-c2ccccc2C(F)(F)F)cc2nc(-c3c(C#N)c(C(C)(C)C)nn3C)[nH]c12` [Compound 14, 3-tert-Butyl-5-[4-isopropoxy-6-(2-trifluoromethyl-phenyl)-3H-imidazo[4,5-c]pyridin-2-yl]-1-methyl-1H-pyrazole-4-carbonitrile benzenesulfonic acid salt]: the inhibition at 0.2 µM under setting [1] turned out to be 99%. This molecule registered an IC50 under setting [2] of 1.2 nM.

As to `Cn1nc(C(C)(C)C)c(C#N)c1-c1nc2cc(-c3ccccc3C(F)(F)F)nc(OCC(F)(F)F)c2[nH]1` [Compound 15, 3-tert-Butyl-1-methyl-5-[4-(2,2,2-trifluoro-ethoxy)-6-(2-trifluoromethyl-phenyl)-3H-imidazo[4,5-c]pyridine-2-yl]-1H-pyrazole-4-carbonitrile methanesulfonic acid salt], the inhibition at 0.2 µM under setting [1] was determined as 100%. Further, under setting [2], the IC50 came to 1.8 nM.

`CC(C)Oc1nc(-c2ccccc2C(F)(F)F)cc2nc(-c3c(Cl)c(C(C)(C)C)nn3C)[nH]c12` [Compound 16, 2-(5-tert-Butyl-4-chloro-2-methyl-2H-pyrazol-3-yl)-4-isopropoxy-6-(2-trifluoromethyl-phenyl)-3H-imidazo[4,5-c]pyridine benzenesulfonic acid salt]: the inhibition at 0.2 µM under setting [1] stood at 99%. Moreover, the IC50 under setting [2] worked out at 0.59 nM.

As for `COc1nc(-c2ccccc2Cl)cc2nc(-c3c4c(nn3C)C3(CCCCC3)CC4)[nH]c12` [Compound 18, 2-(2-methyl-6,6-spirocyclohexyl-2,4,5,6-tetrahydro-cyclopenta-2H-pyrazol-3-yl)-4-methoxy-6-(2-chloro-phenyl)-3H-imidazo[4,5-c]pyridine], the “% Inh @ 0.2 μM” value is 99% and the IC50 amounted to 8.2 nM.

`Cn1nc(C(C)(C)C)c(Cl)c1-c1nc2cc(-c3ccccc3C(F)(F)F)nc(OCC(F)(F)F)c2[nH]1` [Compound 19, 2-(5-tert-Butyl-4-chloro-2-methyl-2H-pyrazol-3-yl)-4-(2,2,2-trifluoroethoxy)-6-(2-trifluoromethyl-phenyl)-3H-imidazo[4,5-c]pyridine methanesulfonic acid salt]: the inhibition at 0.2 µM under setting [1] amounted to 100%. The molecule also showed an IC50 under setting [2] of 0.84 nM.

Take `COCCOc1nc(-c2ccccc2C(F)(F)F)cc2nc(-c3c(Cl)c(C(C)(C)C)nn3C)[nH]c12` [Compound 20, 2-(5-tert-Butyl-4-chloro-2-methyl-2H-pyrazol-3-yl)-4-(2-methoxy-ethoxy)-6-(2-trifluoromethyl-phenyl)-3H-imidazo[4,5-c]pyridine benzenesulfonic acid salt]: the inhibition at 0.2 µM under setting [1] was determined as 99%. The same molecule came in with an IC50 under setting [2] of 0.95 nM.

On to `COCCOc1nc(-c2ccccc2C(F)(F)F)cc2nc(-c3c(C#N)c(C(C)(C)C)nn3C)[nH]c12` [Compound 21, 3-tert-Butyl-5-[4-(2-methoxy-ethoxy)-6-(2-trifluoromethyl-phenyl)-3H-imidazo[4,5-c]pyridine-2-yl]-1-methyl-1H-pyrazole-4-carbonitrile benzenesulfonic acid salt], for which the inhibition at 0.2 µM under setting [1] turned out to be 99%. Moreover, under setting [2], the IC50 came out at 0.69 nM.

In the case of `Cn1nc(C(C)(C)C)c(C#N)c1-c1nc2cc(-c3ccccc3C(F)(F)F)nc(N3CCCCC3)c2[nH]1` [Compound 22, 3-tert-Butyl-1-methyl-5-[4-piperidin-1-yl-6-(2-trifluoromethyl-phenyl)-3H-imidazo[4,5-c]pyridine-2-yl]-1H-pyrazole-4-carbonitrile], under setting [1], the inhibition at 0.2 µM was 99%. Further, the IC50 under setting [2] was found to be 1.4 nM.

Take `Cn1nc(C(C)(C)C)c(Cl)c1-c1nc2nc(-c3ccccc3Cl)ccc2[nH]1` [Compound 23, 2-(5-tert-Butyl-4-chloro-2-methyl-2H-pyrazol-3-yl)-5-(2-chloro-phenyl)-1H-imidazo[4,5-b]pyridine hydrochloride]: the inhibition at 0.2 µM under setting [3] is 96%.

On to `CN1CCN(c2nc(-c3ccccc3C(F)(F)F)cc3nc(-c4c(C#N)c(C(C)(C)C)nn4C)[nH]c23)CC1` [Compound 24, 3-tert-Butyl-1-methyl-5-[4-(4-methyl-piperazin-1-yl)-6-(2-trifluoromethyl-phenyl)-3H-imidazo[4,5-c]pyridin-2-yl]-1H-pyrazole-4-carbonitrile methanesulfonic acid salt], for which the inhibition at 0.2 µM under setting [3] was determined as 99%. Under setting [2], this molecule displayed an IC50 of 7.4 nM.

For the molecule `Cn1nc(C(C)(C)C)c(Cl)c1-c1nc2nc(-c3ccccc3OC(F)(F)F)ccc2[nH]1` [Compound 25, 2-(5-tert-Butyl-4-chloro-2-methyl-2H-pyrazol-3-yl)-5-(2-trifluoromethoxy-phenyl)-1H-imidazo[4,5-b]pyridine hydrochloride], under setting [3], the inhibition at 0.2 µM is 100%. Under setting [2], this molecule showed an IC50 of 12 nM.
